Assay results reported in patent US20240239818A1, “COMPOUNDS AND COMPOSITIONS COMPRISING FLUOROPHORES FOR USE IN VISUALIZATION AND PURIFICATION OR MANIPULATION” (priority 2022, published 2024).

How the values were obtained:
[1] = tested on: HaloTag®-TOMM20, HaloTag®-Sec61β, HaloTag®-histone H2B fusion proteins; assay type: cell-based
Description: (§1) U2OS cell culture, labeling, and fluorescence microscopy. U2OS cells (ATCC) were cultured in Dulbecco's modified Eagle medium (DMEM, phenol red-free; Life Technologies) supplemented with 10% (v/v) fetal bovine serum (FBS, Life Technologies), 1 mM GlutaMAX (Life Technologies) and maintained at 37° C. in a humidified 5% (v/v) CO2 environment. These cell lines undergo regular mycoplasma testing by the Janelia Cell Culture Facility. U2OS cells stably expressing an integrated HaloTag®-histone H2B fusion protein (U2OS.H2B.HaloTag®) were used for nuclear imaging and imaged 18-24 h post-plating. […]
(§2) Live cell imaging with biotin-rhodamine HaloTag® ligands. Having evaluated biotin ligands 12-15 in vitro, their ability to label HaloTag® fusions in live mammalian cells was tested. […] Quantification of the intracellular fluorescence signal from JF549 and msGFP channel further confirmed the poor labeling from 12 (FIG. 9).

[2] = molecular target: T1, HaloTag®-PDGFR fusion protein (Rhodococcus rhodochrous, UniProt P0A3G2, A155T/A167V/A172T/A224E/C128F/C176G/D78G/E160K/E257K/H272N/K175M/K195N/L47V/L88M/N227D/S58T/T264A/Y273L/Y87F); experiment: Live-cell labeling of cell surface HaloTag® fusion in U2OS cells (Airyscan fluorescence microscopy); assay type: cell-based; settings: 100 nM, 1 h
T1 construct: expressed in transfected cells; host or cells: U2OS, transient nucleofection
T1 sequence (P0A3G2 other isoform, or with tags, fused parts or gaps with the stated changes): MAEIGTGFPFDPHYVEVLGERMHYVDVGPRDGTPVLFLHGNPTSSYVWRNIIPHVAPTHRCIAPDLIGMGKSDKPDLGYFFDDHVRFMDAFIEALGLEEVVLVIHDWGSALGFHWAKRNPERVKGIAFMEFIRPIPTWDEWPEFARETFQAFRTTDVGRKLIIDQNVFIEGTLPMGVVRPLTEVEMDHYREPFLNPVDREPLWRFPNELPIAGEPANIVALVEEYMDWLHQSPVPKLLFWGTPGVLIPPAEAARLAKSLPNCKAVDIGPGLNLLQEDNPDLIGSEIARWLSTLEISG
Description: as §1, §2

HaloTag®-TOMM20, HaloTag®-Sec61β, HaloTag®-histone H2B fusion proteins, sequence (as listed by the source): as the sequence (P0A3G2 other isoform, or with tags, fused parts or gaps with the stated changes) above

Biotin-JF549-HaloTag® ligand [compound 12]
cell-permeability [1]: poor cell-permeability
labeling of intracellular HaloTag® fusions ([1]; live U2OS cells, 100 nM, 1 h, mitochondria, ER, nucleus): did not show an appreciable signal
labeling of extracellular HaloTag®-PDGFR fusion [2]: robust labeling of the cellular membrane
